Reference: patent US12065436B2, “Cardiac sarcomere inhibitors” (Cytokinetics, Inc., priority 2018, dated 2024)
Read-outs that look alike come from different tables or passages of the source.

How the values were obtained:
[1] = system: rat cardiac contractility (left ventricle fractional shortening); assay: Echocardiography of acute effect on rat cardiac contractility, oral gavage; type: in vivo, Sprague Dawley rats; conditions: for inhibition in vivo at 6 mg/kg / IC50 / inhibition in vivo at 8 mg/kg / inhibition in vivo at 4 mg/kg: Rattus norvegicus; for inhibition in vivo at 6 mg/kg / inhibition in vivo at 8 mg/kg / inhibition in vivo at 4 mg/kg: oral gavage; for IC50 / IC10: oral dosing, estimated; for IC50: plasma concentration at which fractional shortening is 50% of pre-dose baseline; for IC10: plasma concentration at which
Protocol: Assessment of in vivo cardiac function by echocardiography was performed in male Sprague Dawley rats under isoflurane (1-3%) anesthesia. 2-D M-mode images of the left ventricle were acquired in the parasternal long-axis view before, during, and after administration of compounds by continuous IV infusion or oral gavage. In vivo fractional shortening was determined by M-mode image analysis with the following calculation: ((End diastolic diameter−end systolic diameter)/end diastolic diameter×100). For continuous IV infusion experiments, three pre-dose baseline M-mode images were taken at 1 minute intervals prior to infusion of compound. Compounds were formulated in 50% Propylene Glycol (PG): 16% Captisol: 10% dimethylacetamide (DMA) and delivered via a jugular vein catheter at the rate of 1 mL/kg/h. During infusion, M-mode images were taken at 5 minute intervals. The infusion stopped when fractional shortening reached up to a 60% reduction from baseline. Blood samples were taken to determine the plasma concentration of the compounds. Data was reported as an estimated IC50 value, which is the concentration at which fractional shortening is 50% of the pre-dose baseline contractility.
For oral dosing studies, three pre-dose baseline M-Mode images were taken at 1 minute intervals prior to compound administration. Compounds were formulated in a 0.5% hydroxypropyl methylcellulose 2910 (HPMC 2910): 0.1% Tween 80 suspension and delivered as a single dose (5 mL/kg) by oral gavage. Rats were lightly anesthetized for M-Mode echocardiography measurements at select time points over a 24 hour period. Different dose levels were evaluated for each compound. The compound effect on cardiac fractional shortening at the highest dose evaluated is presented in Table D as a percent reduction of baseline fractional shortening (=100%).
Concurrent with echocardiography measurements, blood samples were taken to determine the corresponding compound plasma concentration.

[2] = target: bovine cardiac myofibrils (full-length cardiac myosin ATPase in the native sarcomere) (Bos taurus (Bovine), UniProt Q9BE39); assay: Skinned bovine cardiac myofibril ATPase assay (PK/LDH-coupled); type: biochemical; conditions: Ca2+ activating to 75% of maximal rate; for CDMF75 IC15: concentration giving 15% inhibition; for IC50: read-out: CDMF75 IC50
How it was run: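 Inhibition of steady-state ATPase read at 340 nm through a PK/LDH-coupled NADH system (0.5 mM NADH, 1.5 mM PEP). Detergent-skinned bovine cardiac myofibrils, 1 mg/mL, were tested at pH 6.8 in PIPES/MgCl2 with 50 μM ATP and calcium adjusted to give pCa50 or pCa75 activation.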

[3] = 1 h, 1-2 h post dose, read-out: FS (% reduction from baseline) at 1-2 h post dose (Mean ± S.D.)
[4] = 4 h post dose, read-out: FS (% reduction from baseline) at 4 h post dose (Mean ± S.D.)

bovine cardiac myofibrils (full-length cardiac myosin ATPase in the native sarcomere), sequence (Q9BE39 whole entry): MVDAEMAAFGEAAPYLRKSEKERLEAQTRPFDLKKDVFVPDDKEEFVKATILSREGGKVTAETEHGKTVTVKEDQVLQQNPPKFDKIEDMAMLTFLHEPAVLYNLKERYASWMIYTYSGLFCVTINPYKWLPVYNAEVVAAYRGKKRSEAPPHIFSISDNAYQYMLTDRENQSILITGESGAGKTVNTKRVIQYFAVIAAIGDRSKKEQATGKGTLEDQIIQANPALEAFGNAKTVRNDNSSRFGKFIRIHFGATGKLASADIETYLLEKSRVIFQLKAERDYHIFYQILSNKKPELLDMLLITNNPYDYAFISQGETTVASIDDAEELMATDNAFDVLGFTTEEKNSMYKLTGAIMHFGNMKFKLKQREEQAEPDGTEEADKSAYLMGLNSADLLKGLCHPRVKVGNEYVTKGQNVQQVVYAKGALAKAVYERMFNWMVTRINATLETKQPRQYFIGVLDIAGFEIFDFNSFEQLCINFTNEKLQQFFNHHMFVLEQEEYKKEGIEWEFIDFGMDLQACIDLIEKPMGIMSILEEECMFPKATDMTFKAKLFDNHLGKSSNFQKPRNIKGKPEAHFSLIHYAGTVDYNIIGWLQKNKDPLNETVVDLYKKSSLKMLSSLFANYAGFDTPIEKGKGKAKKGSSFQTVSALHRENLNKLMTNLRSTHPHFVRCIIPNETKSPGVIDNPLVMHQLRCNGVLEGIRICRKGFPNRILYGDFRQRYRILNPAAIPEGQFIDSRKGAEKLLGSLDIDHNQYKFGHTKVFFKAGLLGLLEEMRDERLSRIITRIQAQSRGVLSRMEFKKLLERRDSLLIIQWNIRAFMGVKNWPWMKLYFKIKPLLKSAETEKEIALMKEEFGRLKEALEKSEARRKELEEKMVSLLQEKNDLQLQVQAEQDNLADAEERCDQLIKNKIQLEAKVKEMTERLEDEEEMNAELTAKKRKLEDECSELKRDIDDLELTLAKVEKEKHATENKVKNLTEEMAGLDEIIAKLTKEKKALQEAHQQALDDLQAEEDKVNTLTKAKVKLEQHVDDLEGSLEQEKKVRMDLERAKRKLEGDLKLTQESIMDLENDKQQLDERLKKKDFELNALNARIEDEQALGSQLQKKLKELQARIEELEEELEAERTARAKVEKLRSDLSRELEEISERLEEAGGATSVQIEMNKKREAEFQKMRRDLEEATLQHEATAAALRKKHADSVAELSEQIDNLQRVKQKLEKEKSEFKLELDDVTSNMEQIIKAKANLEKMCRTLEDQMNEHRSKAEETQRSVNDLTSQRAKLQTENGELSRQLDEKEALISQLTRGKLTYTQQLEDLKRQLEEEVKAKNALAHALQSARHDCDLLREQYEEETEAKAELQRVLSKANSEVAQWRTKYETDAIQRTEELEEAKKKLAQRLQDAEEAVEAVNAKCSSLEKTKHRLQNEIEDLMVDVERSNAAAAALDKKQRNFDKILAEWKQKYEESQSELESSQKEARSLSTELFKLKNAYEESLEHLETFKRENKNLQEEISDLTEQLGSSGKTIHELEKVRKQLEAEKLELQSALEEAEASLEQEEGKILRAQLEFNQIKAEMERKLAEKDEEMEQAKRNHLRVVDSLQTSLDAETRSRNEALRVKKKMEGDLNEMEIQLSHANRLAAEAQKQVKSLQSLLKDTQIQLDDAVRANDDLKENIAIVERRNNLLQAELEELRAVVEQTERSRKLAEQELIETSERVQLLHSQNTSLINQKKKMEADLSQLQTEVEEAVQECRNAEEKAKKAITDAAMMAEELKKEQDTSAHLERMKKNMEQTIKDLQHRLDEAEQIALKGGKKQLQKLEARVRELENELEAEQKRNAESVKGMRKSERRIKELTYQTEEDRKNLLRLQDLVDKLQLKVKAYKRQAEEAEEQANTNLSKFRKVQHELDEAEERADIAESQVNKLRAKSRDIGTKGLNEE
bovine cardiac myofibrils (full-length cardiac myosin ATPase in the native sarcomere), sequence (P85100 whole entry partner): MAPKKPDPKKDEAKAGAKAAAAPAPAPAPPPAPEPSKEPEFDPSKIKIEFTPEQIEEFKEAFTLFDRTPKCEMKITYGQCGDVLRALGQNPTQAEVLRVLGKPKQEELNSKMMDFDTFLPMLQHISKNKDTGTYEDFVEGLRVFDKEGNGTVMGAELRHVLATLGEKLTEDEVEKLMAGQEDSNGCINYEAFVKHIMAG
bovine cardiac myofibrils (full-length cardiac myosin ATPase in the native sarcomere), sequence (Q3SZE5 whole entry partner): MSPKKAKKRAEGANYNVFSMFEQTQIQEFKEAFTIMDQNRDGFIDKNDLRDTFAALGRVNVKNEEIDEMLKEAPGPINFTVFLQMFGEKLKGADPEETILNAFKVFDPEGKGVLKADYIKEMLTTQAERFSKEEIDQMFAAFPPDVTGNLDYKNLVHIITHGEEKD

| Compound | CDMF75 IC15 [2] | IC50 [2] | further results |
| --- | --- | --- | --- |
| O=C(N[C@@H]1CCc2cc(-c3noc(C4CC4)n3)ccc21)c1cn[nH]c1 [Compound 489, (R)-N-(5-(5-cyclopropyl-1,2,4-oxadiazol-3-yl)-2,3-dihydro-1H-inden-1-yl)-1H-pyrazole-4-carboxamide] | 0.6 µM | 2.2 µM | inhibition in vivo at 6 mg/kg [1, 3]: 65 ± 6%; IC50 [1]: 2.4 µM; inhibition in vivo at 6 mg/kg [1, 4]: 35 ± 6%; IC10 [1]: 0.7 µM |
| CCc1nc(-c2ccc3c(c2)CC[C@H]3NC(=O)c2cc(C)no2)no1 [Compound 565, (R)-N-(5-(5-ethyl-1,2,4-oxadiazol-3-yl)-2,3-dihydro-1H-inden-1-yl)-3-methylisoxazole-5-carboxamide] | 0.3 µM | 1.1 µM | inhibition in vivo at 8 mg/kg [1, 3]: 55 ± 13%; IC50 [1]: 37 µM; inhibition in vivo at 8 mg/kg [1, 4]: 43 ± 13%; IC10 [1]: 11 µM |
| CCc1nc(-c2ccc3c(c2)CC[C@H]3NC(=O)c2ccnc(CO)c2)no1 [Compound 577, (R)-N-(5-(5-ethyl-1,2,4-oxadiazol-3-yl)-2,3-dihydro-1H-inden-1-yl)-2-(hydroxymethyl)isonicotinamide] | 0.4 µM | 1.3 µM | inhibition in vivo at 4 mg/kg [1, 3]: 67 ± 6%; IC50 [1]: 0.7 µM; inhibition in vivo at 4 mg/kg [1, 4]: 34 ± 11%; IC10 [1]: 0.1 µM |
| Cc1nc(-c2ccc3c(c2)CC[C@H]3NC(=O)c2cccc([C@@H](C)O)c2)no1 [Compound 726, 3-((R)-1-hydroxyethyl)-N-((R)-5-(5-methyl-1,2,4-oxadiazol-3-yl)-2,3-dihydro-1H-inden-1-yl)benzamide] | 1.2 µM | 6 µM |  |
| COCc1nc(-c2ccc3c(c2)CC[C@H]3NC(=O)c2cccc([C@H](C)O)c2)no1 [Compound 728, 3-((S)-1-hydroxyethyl)-N-((R)-5-(5-(methoxymethyl)-1,2,4-oxadiazol-3-yl)-2,3-dihydro-1H-inden-1-yl)benzamide] | 0.8 µM | 3.8 µM |  |
| COCc1nc(-c2ccc3c(c2)CC[C@H]3NC(=O)c2cccc([C@@H](C)O)c2)no1 [Compound 729, 3-((R)-1-hydroxyethyl)-N-((R)-5-(5-(methoxymethyl)-1,2,4-oxadiazol-3-yl)-2,3-dihydro-1H-inden-1-yl)benzamide] | 2.6 µM | 13.2 µM |  |
| Cc1nc(-c2ccc3c(c2)CC[C@H]3NC(=O)c2ccnc(C(F)F)c2)no1 [Compound 730, (R)-2-(difluoromethyl)-N-(5-(5-methyl-1,2,4-oxadiazol-3-yl)-2,3-dihydro-1H-inden-1-yl)isonicotinamide] | 0.7 µM | 3.2 µM |  |
| COCc1nc(-c2ccc3c(c2)CC[C@H]3NC(=O)c2ccnc(C(F)F)c2)no1 [Compound 731, (R)-2-(difluoromethyl)-N-(5-(5-(methoxymethyl)-1,2,4-oxadiazol-3-yl)-2,3-dihydro-1H-inden-1-yl)isonicotinamide] | 1.1 µM | 5.3 µM |  |
| Cc1nc(-c2ccc3c(c2)CC[C@H]3NC(=O)c2cc(C(F)F)ccn2)no1 [Compound 732, (R)-4-(difluoromethyl)-N-(5-(5-methyl-1,2,4-oxadiazol-3-yl)-2,3-dihydro-1H-inden-1-yl)picolinamide] | 0.7 µM | 3.4 µM |  |
| COCc1nc(-c2ccc3c(c2)CC[C@H]3NC(=O)c2cc(C(F)F)ccn2)no1 [Compound 733, (R)-4-(difluoromethyl)-N-(5-(5-(methoxymethyl)-1,2,4-oxadiazol-3-yl)-2,3-dihydro-1H-inden-1-yl)picolinamide] | 1.5 µM | 8.9 µM |  |
| Cc1nc(-c2ccc3c(c2)OC[C@H]3NC(=O)c2cccc([C@H](C)O)c2)no1 [Compound 734, 3-((S)-1-hydroxyethyl)-N-((S)-6-(5-methyl-1,2,4-oxadiazol-3-yl)-2,3-dihydrobenzofuran-3-yl)benzamide] | 0.8 µM | 4.1 µM |  |
| Cc1nc(-c2ccc3c(c2)OC[C@H]3NC(=O)c2cccc([C@@H](C)O)c2)no1 [Compound 735, 3-((R)-1-hydroxyethyl)-N-((S)-6-(5-methyl-1,2,4-oxadiazol-3-yl)-2,3-dihydrobenzofuran-3-yl)benzamide] | 1.6 µM | 8.5 µM |  |
| COCc1nc(-c2ccc3c(c2)OC[C@H]3NC(=O)c2cccc([C@H](C)O)c2)no1 [Compound 736, 3-((S)-1-hydroxyethyl)-N-((S)-6-(5-(methoxymethyl)-1,2,4-oxadiazol-3-yl)-2,3-dihydrobenzofuran-3-yl)benzamide] | 1.2 µM | 5.4 µM |  |
| COCc1nc(-c2ccc3c(c2)OC[C@H]3NC(=O)c2cccc([C@@H](C)O)c2)no1 [Compound 737, 3-((R)-1-hydroxyethyl)-N-((S)-6-(5-(methoxymethyl)-1,2,4-oxadiazol-3-yl)-2,3-dihydrobenzofuran-3-yl)benzamide] | 2.4 µM | 14.9 µM |  |
| Cc1nc(-c2ccc3c(c2)OC[C@H]3NC(=O)c2ccnc(C(C)O)c2)no1 (stereo partly drawn) [Compound 738, 2-(1-hydroxyethyl)-N-((S)-6-(5-methyl-1,2,4-oxadiazol-3-yl)-2,3-dihydrobenzofuran-3-yl)isonicotinamide] | 2.1 µM | 9.5 µM |  |
| CCc1nc(-c2ccc3c(c2)OC[C@H]3NC(=O)N2CC[C@H](O)C2)no1 [Compound 739, (S)-N-((S)-6-(5-ethyl-1,2,4-oxadiazol-3-yl)-2,3-dihydrobenzofuran-3-yl)-3-hydroxypyrrolidine-1-carboxamide] | 5.4 µM | 24.2 µM |  |
| CCc1nc(-c2ccc3c(c2)OC[C@H]3NC(=O)N2CC[C@@H](O)C2)no1 [Compound 740, (R)-N-((S)-6-(5-ethyl-1,2,4-oxadiazol-3-yl)-2,3-dihydrobenzofuran-3-yl)-3-hydroxypyrrolidine-1-carboxamide] | 1.9 µM | 6.9 µM |  |
| CCc1nc(-c2ccc3c(c2)OC[C@H]3NC(=O)N2CC(O)C2)no1 [Compound 741, (S)-N-(6-(5-ethyl-1,2,4-oxadiazol-3-yl)-2,3-dihydrobenzofuran-3-yl)-3-hydroxyazetidine-1-carboxamide] | 1.9 µM | 10.5 µM |  |
| CCc1nc(-c2ccc3c(c2)OC[C@H]3NC(=O)N2CC[C@H](F)C2)no1 [Compound 742, (S)-N-((S)-6-(5-ethyl-1,2,4-oxadiazol-3-yl)-2,3-dihydrobenzofuran-3-yl)-3-fluoropyrrolidine-1-carboxamide] | 3.4 µM | 16.6 µM |  |
| CCc1nc(-c2ccc3c(c2)OC[C@H]3NC(=O)N2CC[C@@H](F)C2)no1 [Compound 743, (R)-N-((S)-6-(5-ethyl-1,2,4-oxadiazol-3-yl)-2,3-dihydrobenzofuran-3-yl)-3-fluoropyrrolidine-1-carboxamide] | 7.4 µM | 36.7 µM |  |
| CCc1nc(-c2ccc3c(c2)OC[C@H]3NC(=O)OCCO)no1 [Compound 744, 2-hydroxyethyl N-[(3S)-6-(5-ethyl-1,2,4-oxadiazol-3-yl)-2,3-dihydro-1-benzofuran-3-yl]carbamate] | 0.3 µM | 1.3 µM |  |
| CCc1nc(-c2ccc3c(c2)OC[C@H]3NC(=O)NCCO)no1 [Compound 745, (S)-1-(6-(5-ethyl-1,2,4-oxadiazol-3-yl)-2,3-dihydrobenzofuran-3-yl)-3-(2-hydroxyethyl)urea] | 0.8 µM | 3.8 µM |  |
| CCc1nc(-c2ccc3c(c2)OC[C@H]3NC(=O)N(C)CCO)no1 [Compound 746, (S)-3-(6-(5-ethyl-1,2,4-oxadiazol-3-yl)-2,3-dihydrobenzofuran-3-yl)-1-(2-hydroxyethyl)-1-methylurea] | 4.6 µM | 21.3 µM |  |
